Laboratory results: patent publication US11149047B2, “Aryl imidazoles for treatment of cancer” (Aptose Biosciences Inc., priority 2017, dated 2021)

What was measured:
[1] = tested on: PEO4 and PEO1 ovarian cancer cell lines; experiment: Sensitivity of BRCA2-proficient and -deficient cells; assay type: cell-based; conditions: FIG. 3D
Description: Cells were plated and treated with the indicated drugs in 96-well plates for 5 days. Cell viability was measured using CellTiter 96 AQueous one solution (MTS) cell proliferation assay purchased from Promega, and IC50 values were calculated using GraphPad Prism 6 Software.
The finding that COMPOUND I produced DNA damage led to the investigation of whether cells deficient in homologous recombination were hypersensitive to this drug. The hypothesis that there would be synthetic lethality between COMPOUND I and BRCA1 deficiency using isogenic pairs of BRCA1-proficient and -deficient human cell lines was tested. […] The conclusion that BRCA1-deficient cells are hypersensitive to COMPOUND I was further supported by the results obtained in MCF7 E7 cells in which BRCA1 expression is stably knocked down by the expression of an shRNAi. […] Whether BRCA2-deficient cells are more sensitive to COMPOUND I was tested using the BRCA2-proficient and BRCA2-deficient ovarian cancer cell lines, PEO4 and PEO1, respectively. PEO1 is BRCA2-deficient and sensitive to cisplatin and a poly(ADP-ribose) polymerase inhibitor AG14361. PEO4 was derived from ascites at the time of relapse with cisplatin resistance and contains a secondary mutation that restores BRCA2 function. […] Thus, loss of either BRCA1 or BRCA2 function renders malignant cells hypersensitive to COMPOUND I.

[2] = tested on: gene expression in MV4-11 cells; experiment: RNA sequencing differential expression analysis; assay type: cell-based
Description: Treated MV4-11 cells were subjected to total RNA extraction (as for qRT-PCR analysis) and sequenced at the UCSD genomics core facility. RNA was processed using Illumina TruSeq and single end sequenced for 50-bp reads on the Illumina HiSeq4000. Data were analyzed by the McWeeny lab at Oregon Health and Science University (Portland, Oreg.). FASTQ files were assessed for read base distribution and sequence representation using FASTQC http://www.bioinformatics.babraham.ac.uk/projects/fastqc/. Reads were aligned to HG37 using SubRead v1.5.0-pl keeping uniquely mapped reads. Differential expression genes with less than 50 reads (across all 4 samples) were discarded. Raw data and processed files are available on GEO (https://www.ncbi.nlm.nih.gov/geo/query/acc.cgi?acc=GSE111949) accession number GSE111949.
To gain further insight into the pathways exploited by COMPOUND I to cause cell-cycle arrest and apoptosis, differential expression analysis was performed at both the mRNA and protein levels. MV4-11 cells were treated with either vehicle or 500 nmol/L COMPOUND I for 6 hours, and then gene expression was analyzed by RNA-seq. […] The RNA-seq analysis detected a 2-fold increase in KLF4 and a 4.5-fold increase in CDKN1A expression, which is validated by the qRT-PCR data with MV4-11 cells. The differentially regulated genes were analyzed for enriched pathways or GO (Gene Ontology) terms (FIG. 18A) utilizing the Broad Molecular Signatures database (http://software.broadinstitute.org/gsea/msigdb/index.jsp). As expected, apoptotic and cell-cycle pathways were enriched in the differentially expressed gene set. Unexpectedly, gene expression profiles after COMPOUND I treatment were also enriched in the DNA damage response (DDR) and endoplasmic reticulum (ER) stress/unfolded protein response pathways. […] Gene expression changes detected in MV4-11 cells raised the possibility that COMPOUND I could cause apoptosis by inducing DNA damage and activating cellular stress pathways, and/or by inhibition of expression of the MYC oncogene.

[3] = tested on: protein levels in MV4-11 cells; experiment: Reverse-phase protein array (RPPA) analysis; assay type: cell-based; conditions: 500 nmol/L, 6 h vs vehicle
Description: MV4-11 cells were treated as for RNA sequencing (RNA-seq) analysis and whole-cell extracts were prepared for Western blotting. Samples were processed at MD Anderson Cancer Center reverse-phase protein array (RPPA) core facility (details at https://www.mdanderson.org/research/research-resources/core-facilities/functional-proteomics-rppa-core/rppa-process.html). Protein expression levels were averaged for 3 replicates and heatmaps were drawn using GraphPad Prism 7.
To examine the effect of COMPOUND I on protein expression, MV4-11 cells were treated as above and analyzed by RPPA microarray to quantify >300 total and post-translationally modified proteins. […] Of note, there was an increase of cleaved caspase-7, which is indicative of apoptosis. GO analysis of the differentially expressed proteins was performed utilizing the Broad Molecular Signatures database. Significant GO terms included cell death and G1-S cell-cycle arrest pathways, a formal description of G0-G1 arrest, and consistent with the cell-cycle effects detected by flow cytometry and the RNA-seq analyses (FIG. 18C). An increase in E2F1, TP53, γH2AX, CHEK1 phos-S296, and CHEK2 phos-T68 supported the concept that DNA damage pathways are triggered by COMPOUND I treatment. In addition, increases in XBP1, HSPA5, and MAPK14 (p38) phos-T180/182 were observed, indicating ER or cellular stress ([…]; ref 15). DDR pathways can also signal through the MAPK pathway activating MAPK14 and MAPK8 (JNK), and cross-talk between the DDR pathway and ER stress is a well-established phenomenon although it is unclear which pathway represents the initiating event. A significant portion of the differentially expressed proteins and mRNAs are target genes of MYC oncoprotein, which is known to be an integral part of both cell-cycle and apoptotic pathway regulation.

[4] = animals; cited from earlier work

In the case of `Cc1[nH]c2ccc(F)cc2c1-c1nc2c3cccnc3c3ncccc3c2[nH]1` [COMPOUND I, 2-(5-fluoro-2-methyl-1H-indol-3-yl)-1H-imidazo[4,5-f][1,10]phenanthroline], the “effect of restoration of BRCA2 function (PEO4 vs PEO1)” value [1] was “increased resistance”, the “genes differentially regulated (>2-fold change and P<0.05)” value ([2]; 500 nmol/L, 6 hours) was 1,643 genes and the genes downregulated ([2]; 500 nmol/L, 6 hours) was 1,227 genes. The genes upregulated ([2]; 500 nmol/L, 6 hours) was 416 genes, the “increase in BBC3” value ([2]; 500 nmol/L, 6 hours) was 3.95 fold and the “increase in CDKN1A expression” value ([2]; 500 nmol/L, 6 hours) was 4.5 fold. For the same compound, the “increase in KLF4 expression” value ([2]; 500 nmol/L, 6 hours) was 2 fold, the “increase in PMAIP1” value ([2]; 500 nmol/L, 6 hours) was 1.38 fold and the KIT expression ([2]; 6-hour treatment) was “decreased”. For the same compound, the MYC expression ([2]; 6 hours) was “downregulated”, the “fold change ACC_pS79” value [3] was 1.302 fold and the “fold change ADAR1” value [3] was 1.308 fold. For the same compound, the “fold change Bad_pS112” value [3] was 1.55 fold, the “fold change BiP-GRP78” value [3] was 1.29 fold and the “fold change CD29” value [3] was 1.291 fold. For the same compound, the “fold change Caspase-3” value [3] was 2.382 fold, the “fold change Caspase-7-cleaved” value [3] was 1.671 fold and the “fold change Chk1” value [3] was 1.433 fold. For the same compound, the “fold change Chk2_pT68” value [3] was 1.312 fold, the “fold change Cyclin-B1” value [3] was 0.5944 fold and the “fold change Cyclin-E1” value [3] was 1.361 fold. The “fold change DM-Histone-H3” value [3] was 2.008 fold, the “fold change DM-K9-Histone-H3” value [3] was 2.003 fold and the “fold change E2F1” value [3] was 1.423 fold. For the same compound, the “fold change Ets-1” value [3] was 0.6034 fold, the “fold change H2AX_pS140” value [3] was 4.196 fold and the “fold change Hif-1-alpha” value [3] was 1.482 fold. The “fold change Histone-H3” value [3] was 5.083 fold, the “fold change N-Ras” value [3] was 1.397 fold and the “fold change NDRG1_pT346” value [3] was 0.4566 fold. For the same compound, the “fold change PAI-1” value [3] was 1.257 fold, the “fold change PAR” value [3] was 2.707 fold and the “fold change PLK1” value [3] was 0.4946 fold. For the same compound, the “fold change Pdcd-1L1” value [3] was 1.262 fold, the “fold change Rb_pS807_S811” value [3] was 0.6486 fold and the “fold change S6_pS240_S244” value [3] was 0.6467 fold. For the same compound, the “fold change Syk” value [3] was 1.433 fold, the “fold change Ubq-Histone-H2B” value [3] was 1.375 fold and the “fold change XBP-1” value [3] was 1.369 fold. For the same compound, the “fold change p38_pT180_Y182” value [3] was 2.022 fold, the “fold change p53” value [3] was 1.288 fold and the myelosuppression [4] was “did not produce myelosuppression”.
